Laboratory results as given in US20230391871A1, “MONOAMINE OXIDASE BLOCKADE THERAPY FOR TREATING CANCER THROUGH REGULATING TUMOR ASSOCIATED MACROPHAGES (TAMS)” (THE REGENTS OF THE UNIVERSITY OF CALIFORNIA, priority 2020, published 2023).
Read-outs that look alike come from different tables or passages of the source.

Test system: MC38 colon cancer
Protocol: (a) Experimental design. Wildtype BMDMs were stimulated with IL-4/IL-13 with or without MAOI treatment. MAOIs (monoamine oxidase inhibitors) studied were phenelzine (Phe: 20 μM), clorgyline (Clo: 20 μM), moclobemide (Moc: 200 μM), and pirlindole (Pir: 20 μM). NT, no MAOI treatment. (b) FACS analyses of ROS levels in BMDMs. (c) FACS analyses of CD206 expression on BMDMs. (d,e) QPCR analyses of Chi313 (d) and Arg1 (e) mRNA expression in BMDMs. f-j, Studying the TAM-related cancer immunotherapy potential of MAOI treatment in a B16-OVA melanoma syngeneic mouse tumour model (n=7-8). (f) Experimental design. B6 wildtype mice were treated with clodronate liposomes (Clod) to serve as TAM-depleted experimental mice, or treated with vehicle liposomes (Veh) to serve as TAM-intact control mice. Phe, phenelzine treatment: NT, no phenelzine treatment. (g) Tumour growth. (h) Tumour volume at day 18. (i) FACS analyses of CD206 expression on TAMs of TAM-intact experimental mice. (j) FACS analyses of intracellular Granzyme B production in tumour-infiltrating CD8^+ T cells of all experimental mice. k-o, Studying the cancer therapy potential of MAOI treatment in combination with anti-PD-1 treatment in the B16-OVA melanoma and MC38 colon cancer syngeneic mouse tumour models (n=5). (k) Experimental design. […]
Tumour-bearing mice treated with vehicle liposomes (Veh) were included as a control. […] FACS quantifications of TAMs (gated as CD45.2^+CD11b^+Ly6G^−Ly6C^−/lowF4/80^+ cells of total TIIs) are presented (n=7-8). b-f, Studying B16-OVA and MC38 tumour growth in B6 wildtype mice with or without phenelzine treatment (Phe or NT). […]
B16-OVA melanoma cells (1×10^6 per animal) or MC38 colon cancer cells (5×10^5 per animal) were subcutaneously (s.c.) injected into experimental mice to form solid tumours. […] During an experiment, tumour growth was monitored twice per week by measuring tumour size using a Fisherbrand™ Traceable™ digital caliper (Thermo Fisher Scientific): tumour volumes were calculated by formula 1/2×L×W^2.

Compound: NNCCc1ccccc1 [phenelzine]
- progression of pre-established MC38 solid tumours (B6 wildtype mice, phenelzine vs no treatment (FIG. 11e,f)): effectively suppressed
- growth of MC38 tumours in immunodeficient NSG mice (NSG mice, phenelzine vs no treatment): did not suppress
- progression of pre-established MC38 solid tumours (combination study with anti-PD-1 antibody or isotype control (FIG. 5n,o), level comparable to anti-PD-1 alone): significantly suppressed
